Measured values: PubChem BioAssay AID2060616 (Molecular Pharmacology Branch, DTP, NCI, 2025)

Test system: 377384-186-R-J1-PDC complex spheroid viability
Test: Anticancer human tumor 377384-186-R-J1-PDC patient-derived pancreatic carcinoma cell line growth inhibition [CLK]
Details: for IC50: curve of first compound; for viability, T/C: stronger effect = lower value
In short: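 Multi-cell-type spheroids combined patient-derived tumor cells with HUVEC endothelial cells and human mesenchymal stem cells. Paired agents were dosed in half-log steps down from about clinical Cmax, or from 10 microM where Cmax was unknown.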

[1] = second compound 0.0316 µM, first compound 0.0316 µM
[2] = second compound 0.0316 µM, first compound 0.1 µM
[3] = second compound 0.0316 µM, first compound 0.316 µM
[4] = second compound 0.0316 µM, first compound 1 µM
[5] = second compound 0.0316 µM, first compound 3.16 µM
[6] = second compound 0.0316 µM, first compound 10 µM
[7] = second compound 0.1 µM, first compound 0.0316 µM
[8] = second compound 0.1 µM, first compound 0.1 µM
[9] = second compound 0.1 µM, first compound 0.316 µM
[10] = second compound 0.1 µM, first compound 1 µM
[11] = second compound 0.1 µM, first compound 3.16 µM
[12] = second compound 0.1 µM, first compound 10 µM
[13] = second compound 0.316 µM, first compound 0.0316 µM
[14] = second compound 0.316 µM, first compound 0.1 µM
[15] = second compound 0.316 µM, first compound 0.316 µM
[16] = second compound 0.316 µM, first compound 1 µM
[17] = second compound 0.316 µM, first compound 3.16 µM
[18] = second compound 0.316 µM, first compound 10 µM
[19] = second compound 1 µM, first compound 0.0316 µM
[20] = second compound 1 µM, first compound 0.1 µM
[21] = second compound 1 µM, first compound 0.316 µM
[22] = second compound 1 µM, first compound 1 µM
[23] = second compound 1 µM, first compound 3.16 µM
[24] = second compound 1 µM, first compound 10 µM
[25] = second compound 3.16 µM, first compound 0.0316 µM
[26] = second compound 3.16 µM, first compound 0.1 µM
[27] = second compound 3.16 µM, first compound 0.316 µM
[28] = second compound 3.16 µM, first compound 1 µM
[29] = second compound 3.16 µM, first compound 3.16 µM
[30] = second compound 3.16 µM, first compound 10 µM
[31] = second compound 10 µM, first compound 0.0316 µM
[32] = second compound 10 µM, first compound 0.1 µM
[33] = second compound 10 µM, first compound 0.316 µM
[34] = second compound 10 µM, first compound 1 µM
[35] = second compound 10 µM, first compound 3.16 µM
[36] = second compound 10 µM, first compound 10 µM
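Further: spheroids exposed to agents for 7 days before reading.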
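Wherever viability, T/C is given: luminescence signal used as a stand-in for viable cells.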

SMILES: CC(CO)NC(=O)c1cc(-c2ccc(Cl)cc2)nn(-c2cnn(C)c2)c1=O (centres undefined) + CNC(=O)c1ccc(Nc2nc(OC3CCCC3)c3c(-c4ccc5nc(C)oc5c4)c[nH]c3n2)c(OC)c1
- IC50 (second compound 0.0316 µM): 9.17 µM
- IC50 (second compound 0.1 µM): 3.3 µM
- IC50 (second compound 0.316 µM): < 0.0316 µM
- IC50 (second compound 1 µM): < 0.0316 µM
- IC50 (second compound 3.16 µM): < 0.0316 µM
- IC50 (second compound 10 µM): < 0.0316 µM
- viability, T/C [1]: 102%
- viability, T/C [2]: 120%
- viability, T/C [3]: 117%
- viability, T/C [4]: 106%
- viability, T/C [5]: 85.1%
- viability, T/C [6]: 47.1%
- viability, T/C [7]: 64.1%
- viability, T/C [8]: 75.6%
- viability, T/C [9]: 55.4%
- viability, T/C [10]: 58.4%
- viability, T/C [11]: 53.1%
- viability, T/C [12]: 35.9%
- viability, T/C [13]: 23.6%
- viability, T/C [14]: 25.4%
- viability, T/C [15]: 24.7%
- viability, T/C [16]: 22.7%
- viability, T/C [17]: 24.4%
- viability, T/C [18]: 20.5%
- viability, T/C [19]: 26.8%
- viability, T/C [20]: 20.7%
- viability, T/C [21]: 21%
- viability, T/C [22]: 22%
- viability, T/C [23]: 20.5%
- viability, T/C [24]: 17.8%
- viability, T/C [25]: 21%
- viability, T/C [26]: 21.2%
- viability, T/C [27]: 21.7%
- viability, T/C [28]: 23.9%
- viability, T/C [29]: 22.3%
- viability, T/C [30]: 19.6%
- viability, T/C [31]: 22.5%
- viability, T/C [32]: 21.3%
- viability, T/C [33]: 20.4%
- viability, T/C [34]: 19.9%
- viability, T/C [35]: 18.1%
- viability, T/C [36]: 19.1%

SMILES: CCCS(=O)(=O)Nc1ccc(F)c(C(=O)c2c[nH]c3ncc(-c4ccc(Cl)cc4)cc23)c1F + CN1CCN(c2cc(C(=O)Nc3cc4cc(-c5cnn(C)c5)ccc4cn3)ccn2)CC1
- IC50 (second compound 0.0316 µM): > 10 µM
- IC50 (second compound 0.1 µM): 8.85 µM
- IC50 (second compound 0.316 µM): < 0.0316 µM
- IC50 (second compound 1 µM): < 0.0316 µM
- IC50 (second compound 3.16 µM): < 0.0316 µM
- IC50 (second compound 10 µM): < 0.0316 µM
- viability, T/C [1]: 122%
- viability, T/C [2]: 122%
- viability, T/C [3]: 141%
- viability, T/C [4]: 140%
- viability, T/C [5]: 117%
- viability, T/C [6]: 64.8%
- viability, T/C [7]: 117%
- viability, T/C [8]: 78.5%
- viability, T/C [9]: 135%
- viability, T/C [10]: 121%
- viability, T/C [11]: 97.1%
- viability, T/C [12]: 44.4%
- viability, T/C [13]: 34.8%
- viability, T/C [14]: 21.6%
- viability, T/C [15]: 31.2%
- viability, T/C [16]: 33.4%
- viability, T/C [17]: 28.9%
- viability, T/C [18]: 15.4%
- viability, T/C [19]: 1.07%
- viability, T/C [20]: 3.44%
- viability, T/C [21]: 1.53%
- viability, T/C [22]: 1.74%
- viability, T/C [23]: 1.66%
- viability, T/C [24]: 1.39%
- viability, T/C [25]: 0.5%
- viability, T/C [26]: 0.57%
- viability, T/C [27]: 1.26%
- viability, T/C [28]: 0.82%
- viability, T/C [29]: 0.51%
- viability, T/C [30]: 0.48%
- viability, T/C [31]: 0.54%
- viability, T/C [32]: 0.62%
- viability, T/C [33]: 0.58%
- viability, T/C [34]: 0.68%
- viability, T/C [35]: 0.66%
- viability, T/C [36]: 0.26%
